Common to all, as to test: growth of human tumour cells (NCI), 48 h
The subject of assay [1] is MOLT-4 leukemia.
Assay [2] has as its system BT-549 breast.
Assay [3] concerns HS 578T breast.
For assay [4], the system named is MDA-MB-231 breast.
In assay [5] the test system is OVCAR-8 ovarian.
The test system of assay [6] is MCF7 breast.
Assay [7] deals with T-47D breast.

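How tested: cells in 96-well plates exposed to compound for 48 hours at five concentrations. GI50 marks 50% less growth. TGI marks complete inhibition of growth.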

As for `CC(CC(=O)O)C(C(=O)O)C(=O)O` (stereo unspecified), the TGI in assay [1], in assay [2], in assay [3], in assay [4], in assay [5] and in assay [6] was greater than 100 µM each time. In addition, the TGI in assay [7] was greater than 100 µM.

Take `Cc1ccc(-c2nc3ccc([N+](=O)[O-])cc3[nH]2)cc1`: the TGI in assay [1], in assay [2], in assay [3], in assay [4], in assay [5] and in assay [6] was greater than 100 µM each time. The TGI in assay [7] was greater than 100 µM.

Turning to `Cc1ccc(Cl)cc1Nc1nc(C(F)(F)F)ccc1C(=O)N1CCN(c2cccc(Cl)c2)CC1`, the TGI in assay [1], in assay [2], in assay [3], in assay [4], in assay [5] and in assay [6] was greater than 100 µM in each case. The TGI in assay [7] is greater than 100 µM. The GI50 is greater than 100 µM in assay [2]; 47.9 µM in assay [3]; 30.5 µM in assay [4]; greater than 100 µM in assay [5]; 47.9 µM in assay [6]; 37.6 µM in assay [7].

Consider `Cn1cnc([N+](=O)[O-])c1S(=O)(=O)Oc1ccccc1`, for which the GI50 is 3.65 µM in assay [1]; 20.7 µM in assay [2]; 24.6 µM in assay [3]; 15.5 µM in assay [4]; 22.6 µM in assay [5]; 7.82 µM in assay [6]. The GI50 in assay [7] is 2.3 µM. For the same compound, the TGI was 18.9 µM in assay [1]; 45.4 µM in assay [2]; greater than 80.5 µM in assay [3]; 47.9 µM in assay [4]; greater than 92.7 µM in assay [5]; greater than 44.3 µM in assay [6]. The same compound came in with a TGI in assay [7] of 7.73 µM.

As to `Cc1cn2c(/C=C3\C(=O)Nc4ccc(O)cc43)c(-c3ccc(Cl)cc3)nc2s1`, the GI50 was 9.97 µM in assay [1]; 17.3 µM in assay [2]; 21.1 µM in assay [3]; 14.5 µM in assay [4]; 18.4 µM in assay [5]; 14.2 µM in assay [6]. Besides, the GI50 in assay [7] was 8.96 µM. Also, the TGI in assay [1] was 27.1 µM; in assay [2], 41.5 µM; in assay [3] it was 84.1 µM; in assay [4] it was 54.2 µM; in assay [5], greater than 100 µM; in assay [6] it was 33.8 µM. In assay [7], this compound showed a TGI of 30.2 µM.

Consider `CCCCCCNC(=O)c1nc(-c2ccccc2)oc1Cc1ccc(OP(=O)(O)O)cc1`, for which the GI50 in assay [1] was 20.9 µM; in assay [2], 16.8 µM; in assay [3] it was 18.7 µM; in assay [4], 17.2 µM; in assay [5] it was 20.2 µM; in assay [6], 15.3 µM. For the same compound, the GI50 in assay [7] was 16.5 µM. Also, the TGI in assay [1] was determined as 54.8 µM; in assay [2] it was 32.7 µM; in assay [3], 54.8 µM; in assay [4] it was 36.6 µM; in assay [5] it was 45.6 µM; in assay [6] it was 29.9 µM. The same compound returned a TGI in assay [7] of 30.8 µM.

Regarding `C[C@H]1Oc2cc(cnc2N)-c2c(nn(C)c2C#N)CN(C)C(=O)c2ccc(F)cc21`, the GI50 in assay [1] was greater than 93.7 µM; in assay [2], greater than 100 µM; in assay [3] it was 18.3 µM; in assay [4], 18.1 µM; in assay [5] it was 98 µM; in assay [6], 5.42 µM. Further, in assay [7], the GI50 was 36.2 µM. For the same compound, the TGI in assay [1], in assay [2], in assay [3], in assay [4], in assay [5] and in assay [6] was greater than 100 µM in each case. Further, the TGI in assay [7] is greater than 100 µM.

With `CS(=O)(=O)CCCn1c(=O)c(Oc2ccc(F)cc2F)cc2cnc(NC3CCOCC3)nc21`, the GI50 in assay [1], in assay [2], in assay [3], in assay [4], in assay [5] and in assay [6] was greater than 25 µM in each case. The GI50 in assay [7] is greater than 25 µM. For the same compound, the TGI in assay [1], in assay [2], in assay [3], in assay [4], in assay [5] and in assay [6] was greater than 25 µM each time. The same compound displayed a TGI in assay [7] greater than 25 µM.

As for `COc1ccncc1C#Cc1cncc(C(=O)Nc2ccc(CN3CCN(C)CC3)c(C(F)(F)F)c2)c1`, the GI50 in assay [1] is 14.5 µM; in assay [2], 21.1 µM; in assay [3] it was 7.75 µM; in assay [4], 7.71 µM; in assay [5], 27.1 µM; in assay [6] it was 11.1 µM. Besides, the GI50 in assay [7] is 89.1 µM. The TGI in assay [1] was greater than 100 µM; in assay [2], greater than 100 µM; in assay [3], 52.5 µM; in assay [4], 85.4 µM; in assay [5], greater than 100 µM; in assay [6], 94.6 µM. The compound also returned a TGI in assay [7] greater than 100 µM.
